Experimental data reported in PubChem BioAssay AID328 (DTP/NCI, 2004).
Where “and” joins values, the source holds several entries; their conditions need not be identical. Equal entries are not always repeated. Inconclusive results and toxic doses are left out. Rule for the calls: active = survival T/C of 150% or more; inactive = T/C below 125% in these data.

Test system: BDF1 mice, P388 leukemia ip, median survival T/C
Experiment: NCI In Vivo Anticancer Drug Screen. Data for tumor model P388 Leukemia (intraperitoneal) in B6D2F1 (BDF1) mice
Conditions: endpoint: median survival time, higher = longer survival
In short: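 Transplantable tumour in mice; compound vs vehicle dosing; survival scored; ratio of treated to control reported.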

[1] = dose: 50.0 mg/kg/injection, schedule: Q01DX009 (ip), vehicle: saline with Tween-80
[2] = dose: 200.0 mg/kg/injection, schedule: Q01DX009 (ip), vehicle: saline with Tween-80
[3] = dose: 100.0 mg/kg/injection, schedule: Q01DX009 (ip), vehicle: saline with Tween-80
[4] = dose: 400.0 mg/kg/injection, schedule: Q01DX009 (ip), vehicle: saline with Tween-80
[5] = dose: 100.0 mg/kg/injection, schedule: Q01DX009 (ip), vehicle: Klucel (hydroxypropylcellulose) (HPC)
[6] = dose: 100.0 mg/kg/injection, schedule: Q04DX003 (ip), vehicle: Klucel (hydroxypropylcellulose) (HPC)
[7] = dose: 200.0 mg/kg/injection, schedule: Q01DX009 (ip), vehicle: Klucel (hydroxypropylcellulose) (HPC)
[8] = dose: 200.0 mg/kg/injection, schedule: Q04DX003 (ip), vehicle: Klucel (hydroxypropylcellulose) (HPC)
[9] = dose: 12.5 mg/kg/injection, schedule: Q01DX009 (ip), vehicle: saline
[10] = dose: 100.0 mg/kg/injection, schedule: Q04DX003 (ip), vehicle: saline with Tween-80
[11] = dose: 200.0 mg/kg/injection, schedule: Q04DX003 (ip), vehicle: saline with Tween-80
[12] = dose: 400.0 mg/kg/injection, schedule: Q04DX003 (ip), vehicle: saline with Tween-80
[13] = dose: 100.0 mg/kg/injection, schedule: Q01DX009 (ip), vehicle: saline
[14] = dose: 200.0 mg/kg/injection, schedule: Q01DX009 (ip), vehicle: saline
[15] = dose: 400.0 mg/kg/injection, schedule: Q01DX009 (ip), vehicle: saline

Measured: T/C

CC1CC2CCCC(O)=C2C(=O)O1 (stereo unspecified)
inactive: dose: 37.0 mg/kg/injection, schedule: Q01DX010 (ip), vehicle: saline 95 % of control | dose: 75.0 mg/kg/injection, schedule: Q01DX010 (ip), vehicle: saline 100 % of control | dose: 150.0 mg/kg/injection, schedule: Q01DX010 (ip), vehicle: saline 105 % of control

c1ccc(CCSc2ncnc3nc[nH]c23)cc1
inactive: dose: 62.5 mg/kg/injection, schedule: Q01DX010 (ip), vehicle: saline 95 % of control and 104 % of control | dose: 125.0 mg/kg/injection, schedule: Q01DX010 (ip), vehicle: saline 95 % of control and 100 % of control | dose: 250.0 mg/kg/injection, schedule: Q01DX010 (ip), vehicle: saline 100 % of control | dose: 500.0 mg/kg/injection, schedule: Q01DX010 (ip), vehicle: saline 86 % of control and 109 % of control

NC1=NCC(CSc2ccc(Cl)c(Cl)c2)O1 (stereo unspecified)
inactive: dose: 50.0 mg/kg/injection, schedule: Q04DX002 (ip), vehicle: saline + Tween-80 + alcohol 95 % of control | dose: 100.0 mg/kg/injection, schedule: Q04DX002 (ip), vehicle: saline + Tween-80 + alcohol 101 % of control | dose: 200.0 mg/kg/injection, schedule: Q04DX002 (ip), vehicle: saline + Tween-80 + alcohol 95 % of control

CCOC(=O)c1ccccc1OP(=O)(N(C)C)N(C)C
inactive: [1] 106 % of control | [2] 122 % of control

NC(N)=NC(N)=Nc1ccc(S(=O)(=O)O)cc1
inactive: [3] 103 % of control | [2] 97 % of control | [4] 94 % of control

CC1(C)CC(=O)C(C(=O)Nc2ccc(Cl)cc2)C(=O)C1
inactive: [1] 98 % of control | [3] 93 % of control | [2] 89 % of control

O=C(NCCCl)NC1c2ccccc2CCc2ccccc21
inactive: dose: 50.0 mg/kg/injection, schedule: Q01DX009 (ip), vehicle: Klucel (hydroxypropylcellulose) (HPC) 105 % of control | [5] 105 % of control | [6] 95 % of control | [7] 100 % of control | [8] 90 % of control

ClCCN=Cc1ccc(Cl)cc1
inactive: [3] 116 % of control | [2] 111 % of control | [4] 120 % of control

COC(=O)C1C2(C)CCc3cc(OC)ccc3C2=CC(=O)C1(C)C(=O)OC (stereo unspecified)
inactive: dose: 50.0 mg/kg/injection, schedule: Q04DX003 (sc), vehicle: steriod suspending solution 100 % of control | dose: 100.0 mg/kg/injection, schedule: Q04DX003 (sc), vehicle: steriod suspending solution 90 % of control

CCCCCCCCCCC[N+](C)(C)CCCCCC[N+](C)(C)CCCCCCCCCCC
inactive: dose: 1.56 mg/kg/injection, schedule: Q01DX009 (ip), vehicle: saline 90 % of control and 108 % of control | dose: 3.12 mg/kg/injection, schedule: Q01DX009 (ip), vehicle: saline 103 % of control | dose: 3.13 mg/kg/injection, schedule: Q01DX009 (ip), vehicle: saline 102 % of control and 118 % of control | dose: 6.25 mg/kg/injection, schedule: Q01DX009 (ip), vehicle: saline 115 % of control and 124 % of control | [9] 93 % of control and 109 % of control

CN=C(N)c1ccc(N=C(N)c2ccc(N=C(N)c3ccc(NC(=O)Nc4ccc(NC(=O)Nc5ccc(C(N)=Nc6ccc(C(N)=Nc7ccc(C(N)=NC)cc7)cc6)cc5)cc4)cc3)cc2)cc1
active: dose: 3.0 mg/kg/injection, schedule: Q01DX009 (ip), vehicle: saline with Tween-80 162 % of control | dose: 5.0 mg/kg/injection, schedule: Q01DX009 (ip), vehicle: saline with Tween-80 183 % of control | dose: 8.0 mg/kg/injection, schedule: Q01DX009 (ip), vehicle: saline with Tween-80 230 % of control and 162 % of control | dose: 12.0 mg/kg/injection, schedule: Q01DX009 (ip), vehicle: saline with Tween-80 150 % of control | dose: 12.0 mg/kg/injection, schedule: Q04DX003 (ip), vehicle: saline with Tween-80 250 % of control | dose: 18.0 mg/kg/injection, schedule: Q04DX003 (ip), vehicle: saline with Tween-80 213 % of control and 216 % of control | dose: 25.0 mg/kg/injection, schedule: Q04DX003 (ip), vehicle: saline with Tween-80 250 % of control and 204 % of control | dose: 37.0 mg/kg/injection, schedule: Q04DX003 (ip), vehicle: saline with Tween-80 170 % of control
inactive: dose: 18.0 mg/kg/injection, schedule: Q01DX009 (ip), vehicle: saline with Tween-80 92 % of control | dose: 25.0 mg/kg/injection, schedule: Q01DX009 (ip), vehicle: saline with Tween-80 109 % of control

O=C(Cl)C1CCCCC1
inactive: [1] 100 % of control | [3] 104 % of control

O=S(=O)(O)c1ccncc1
inactive: dose: 100.0 mg/kg/injection, schedule: Q01DX001 (ip), vehicle: saline 116 % of control | dose: 200.0 mg/kg/injection, schedule: Q01DX001 (ip), vehicle: saline 104 % of control | dose: 400.0 mg/kg/injection, schedule: Q01DX001 (ip), vehicle: saline 87 % of control

C#CC(c1ccccc1)(c1ccccc1)n1ccnc1
inactive: [1] 98 % of control | [3] 100 % of control | [2] 98 % of control

CCCCc1[nH]nc2c1C(=O)C(Nc1ccccc1)=CC2=O
inactive: [10] 103 % of control | [11] 100 % of control | [12] 100 % of control

COc1ccc(/C=C/C(=O)c2ccc(OCc3ccccc3)c(OC)c2)cc1OC
inactive: dose: 50.0 mg/kg/injection, schedule: Q04DX003 (ip), vehicle: saline with Tween-80 105 % of control | [10] 99 % of control | [11] 87 % of control | [12] 87 % of control

N#Cc1nc2c(n(O)c1=N)CCCCCCCCCC2
inactive: [1] 95 % of control | [3] 92 % of control | [2] 92 % of control

Nc1ccc(C(=O)Nc2ccc(Nc3ccncc3)cc2)cc1
inactive: [5] 109 % of control | [6] 104 % of control | [7] 118 % of control | [8] 104 % of control | dose: 400.0 mg/kg/injection, schedule: Q01DX009 (ip), vehicle: Klucel (hydroxypropylcellulose) (HPC) 118 % of control | dose: 400.0 mg/kg/injection, schedule: Q04DX003 (ip), vehicle: Klucel (hydroxypropylcellulose) (HPC) 100 % of control

ClCC(Cl)CN1CCCCC1 (stereo unspecified)
inactive: [9] 90 % of control | dose: 25.0 mg/kg/injection, schedule: Q01DX009 (ip), vehicle: saline 86 % of control | dose: 50.0 mg/kg/injection, schedule: Q01DX009 (ip), vehicle: saline 104 % of control

C[C@@]1(O)CCCC[C@H]1O
inactive: [13] 100 % of control | dose: 100.0 mg/kg/injection, schedule: Q04DX003 (ip), vehicle: saline 110 % of control | [14] 100 % of control | dose: 200.0 mg/kg/injection, schedule: Q04DX003 (ip), vehicle: saline 100 % of control | dose: 400.0 mg/kg/injection, schedule: Q04DX003 (ip), vehicle: saline 100 % of control

CCOC(=O)C(Cc1ccc(N(CCCl)CCCl)cc1)NC(=O)C(N)CO (stereo unspecified)
inactive: dose: 40.0 mg/kg/injection, schedule: Q04DX003 (ip), vehicle: water 105 % of control
active: dose: 5.0 mg/kg/injection, schedule: Q04DX003 (ip), vehicle: water 157 % of control | dose: 10.0 mg/kg/injection, schedule: Q04DX003 (ip), vehicle: water 263 % of control | dose: 20.0 mg/kg/injection, schedule: Q04DX003 (ip), vehicle: water 263 % of control

NC(=S)N/N=C/c1ccccc1N
inactive: dose: 100.0 mg/kg/injection, schedule: Q01DX001 (ip), vehicle: Klucel (hydroxypropylcellulose) (HPC) 104 % of control | dose: 200.0 mg/kg/injection, schedule: Q01DX001 (ip), vehicle: Klucel (hydroxypropylcellulose) (HPC) 104 % of control | dose: 400.0 mg/kg/injection, schedule: Q01DX001 (ip), vehicle: Klucel (hydroxypropylcellulose) (HPC) 108 % of control

COc1ccc(C(C)=O)c(OC)c1C
inactive: [13] 104 % of control | [14] 96 % of control | [15] 100 % of control

COc1ccc(C(=O)C(C)C=O)c(OCc2ccccc2)c1OC (stereo unspecified)
inactive: [3] 95 % of control | [10] 104 % of control | [2] 113 % of control | [11] 113 % of control | [12] 90 % of control

CC1CN(Cc2ccccc2)CC(C)N1 (stereo unspecified)
inactive: dose: 50.0 mg/kg/injection, schedule: Q04DX003 (ip), vehicle: water 106 % of control | dose: 100.0 mg/kg/injection, schedule: Q04DX003 (ip), vehicle: water 104 % of control | dose: 200.0 mg/kg/injection, schedule: Q04DX003 (ip), vehicle: water 92 % of control

CCC(=O)O[C@H]1CC[C@H]2[C@@H]3[C@H](C)CC4=CC(=O)CC[C@]4(C)[C@H]3CC[C@]12C
inactive: [13] 95 % of control | [14] 100 % of control | [15] 115 % of control
